Reference: patent US9012436B2, “Lipid composition” (Diurnal Limited, priority 2008, dated 2015)

Experiment: Solubilisation capacity of formulation systems for testosterone
Description: The formulation systems as detailed in Table 1 all show significant solubilisation capacity for testosterone (>50 mg/^1) which is at least 100-fold higher than that achievable in aqueous media (<0.3 mg/g^1) and at least 5-fold higher than that achievable in single component lipidic vehicles alone (max.<10 mg/g).
^1N.B: For aqueous systems 1 g=1 mL; for oil systems 1 g=>1 mL

C[C@]12CC[C@H]3[C@@H](CCC4=CC(=O)CC[C@@]43C)[C@@H]1CC[C@@H]2O [testosterone]
Solubility of testosterone achievable in aqueous media (aqueous media): < 0.3 mg/g
Solubility of testosterone achievable in single component lipidic vehicles alone (single component lipidic vehicles, max.): < 10 mg/g
